Test results reported in PMC8703823, “The Role of TRPA1 Channels in the Central Processing of Odours Contributing to the Behavioural Responses of Mice” (Pharmaceuticals, 2021).
pEC50: −log10 of the molar value.

Experiments:
[1] = molecular target: T1, mTRPA1 (Mus musculus, UniProt Q8BLA8); assay: Fluo-4 AM calcium influx, flow cytometry, CHO cells; type: cell-based
T1 construct: gene Trpa1; stably overexpressed in CHO cells

[2] = molecular target: T2, hTRPA1 (Homo sapiens, UniProt O75762); assay: as above; type: cell-based
T2 construct: gene TRPA1; stably overexpressed in CHO cells
T2 sequence (O75762 whole entry): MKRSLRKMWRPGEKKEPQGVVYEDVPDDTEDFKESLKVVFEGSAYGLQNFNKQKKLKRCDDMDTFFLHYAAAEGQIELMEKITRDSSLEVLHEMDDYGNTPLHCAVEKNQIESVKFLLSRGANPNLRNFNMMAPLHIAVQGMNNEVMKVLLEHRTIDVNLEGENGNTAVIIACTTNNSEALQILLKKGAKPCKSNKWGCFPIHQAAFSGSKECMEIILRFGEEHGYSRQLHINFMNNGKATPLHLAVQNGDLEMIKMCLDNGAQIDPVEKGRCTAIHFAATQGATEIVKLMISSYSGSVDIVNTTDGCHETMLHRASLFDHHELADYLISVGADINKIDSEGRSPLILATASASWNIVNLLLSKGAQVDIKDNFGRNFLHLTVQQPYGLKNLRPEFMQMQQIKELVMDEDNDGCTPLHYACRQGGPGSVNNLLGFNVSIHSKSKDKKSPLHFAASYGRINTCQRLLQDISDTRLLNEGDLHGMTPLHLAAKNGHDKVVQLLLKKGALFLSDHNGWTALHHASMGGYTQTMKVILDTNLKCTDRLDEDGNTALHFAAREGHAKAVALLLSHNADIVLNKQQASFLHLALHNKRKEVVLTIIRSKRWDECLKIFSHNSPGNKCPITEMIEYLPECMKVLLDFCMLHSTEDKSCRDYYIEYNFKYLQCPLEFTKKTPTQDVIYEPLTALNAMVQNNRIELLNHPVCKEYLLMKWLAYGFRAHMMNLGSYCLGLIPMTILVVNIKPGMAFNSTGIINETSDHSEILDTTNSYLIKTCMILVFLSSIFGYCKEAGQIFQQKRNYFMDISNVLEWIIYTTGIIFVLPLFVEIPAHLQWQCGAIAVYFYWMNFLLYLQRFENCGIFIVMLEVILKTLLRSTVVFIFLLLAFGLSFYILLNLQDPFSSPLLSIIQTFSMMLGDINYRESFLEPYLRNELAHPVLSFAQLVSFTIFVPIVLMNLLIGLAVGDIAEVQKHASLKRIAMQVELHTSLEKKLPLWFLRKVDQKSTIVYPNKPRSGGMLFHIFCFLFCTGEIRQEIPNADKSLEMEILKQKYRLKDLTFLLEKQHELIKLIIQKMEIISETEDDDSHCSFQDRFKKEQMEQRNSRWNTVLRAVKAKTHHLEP

T1 sequence (Q8BLA8 whole entry): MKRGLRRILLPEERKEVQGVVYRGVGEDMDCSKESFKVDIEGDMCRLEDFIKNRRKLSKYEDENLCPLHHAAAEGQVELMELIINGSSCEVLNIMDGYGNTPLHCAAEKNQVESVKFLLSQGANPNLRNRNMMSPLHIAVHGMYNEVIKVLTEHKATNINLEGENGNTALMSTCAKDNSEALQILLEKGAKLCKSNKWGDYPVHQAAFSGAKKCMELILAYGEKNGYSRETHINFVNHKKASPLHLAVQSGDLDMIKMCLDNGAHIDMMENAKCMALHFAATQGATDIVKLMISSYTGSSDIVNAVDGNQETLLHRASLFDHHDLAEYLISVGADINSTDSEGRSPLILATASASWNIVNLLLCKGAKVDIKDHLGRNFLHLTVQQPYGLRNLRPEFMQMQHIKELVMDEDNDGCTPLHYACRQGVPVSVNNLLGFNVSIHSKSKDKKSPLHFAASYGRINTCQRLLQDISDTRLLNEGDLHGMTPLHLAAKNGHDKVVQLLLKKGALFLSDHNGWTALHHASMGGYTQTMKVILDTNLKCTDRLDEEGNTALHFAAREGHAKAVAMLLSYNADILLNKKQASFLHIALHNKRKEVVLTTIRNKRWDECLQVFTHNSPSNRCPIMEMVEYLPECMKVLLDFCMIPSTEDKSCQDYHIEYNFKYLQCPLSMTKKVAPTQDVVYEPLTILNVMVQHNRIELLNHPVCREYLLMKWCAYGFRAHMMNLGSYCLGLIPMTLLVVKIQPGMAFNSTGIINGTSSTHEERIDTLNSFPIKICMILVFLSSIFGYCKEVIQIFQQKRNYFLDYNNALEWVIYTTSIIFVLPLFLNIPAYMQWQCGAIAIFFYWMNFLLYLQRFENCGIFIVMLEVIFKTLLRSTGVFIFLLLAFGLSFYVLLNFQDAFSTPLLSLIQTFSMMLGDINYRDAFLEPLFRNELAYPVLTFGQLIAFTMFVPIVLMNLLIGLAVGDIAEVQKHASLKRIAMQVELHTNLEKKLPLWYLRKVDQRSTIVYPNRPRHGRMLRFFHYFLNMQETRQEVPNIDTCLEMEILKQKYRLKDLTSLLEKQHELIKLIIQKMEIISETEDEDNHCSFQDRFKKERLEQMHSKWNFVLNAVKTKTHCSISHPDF

CC1=NCCS1 [2-MT, 2-methyl-2-thiazoline]
pEC50 [1]: 2.35
pEC50 [2]: 2.30
